Patent US12220419B2, “BCL-2 inhibitors” (Newave Pharmaceutical Inc., priority 2018, dated 2025)

Key:
Bcl-w = Bcl-w (Homo sapiens (Human), UniProt Q92843); conditions: cited from earlier work
SCLC H146 cell line = conditions: read-out: IC50 against SCLC H146 cell line; cited from earlier work
H345 xenograft = conditions: 100 mg/kg/day, H345 xenograft model; cited from earlier work
[1] = test system: small-cell lung cancer xenograft; conditions: oral administration, alone; cited from earlier work
[2] = test system: acute lymphoblastic leukemia xenograft; conditions: oral administration, alone; cited from earlier work
circulating platelets = conditions: clinical trial, single agent; cited from earlier work
[3] = in vivo; cited from earlier work
[4] = cited from earlier work
BCL-2 = BCL-2 (Homo sapiens (Human), UniProt P10415); test: BCL-2 competition binding (fluorescence polarization) assay; conditions: read-out: BCL2 IC50
Method: Biological Example 1: BCL-2 Competition Binding (Fluorescence Polarization) Assay
The fluorescence-labeled 23 amino acid peptide BH3 was purchased from CalBiochem ([…]). […] This binding assay was performed in 96-well plate and with each assay contained 15 and 30 nM of labeled peptide and purified BCL-2 protein (purchased from R&D Systems, Inc). The assay buffer contained 20 mM Hepes (pH 7.0), 50 mM KCl, 5 mM MgCl2, 20 mM Na2MoO4, 0.1 mg/ml Bovine Gamma Globulin and 0.01% NP40. Compounds were diluted in DMSO and added to the final assay with concentration range from 20 μM to 2 nM. The polarization degree (mP) value was determined by BioTek Synergy II with background subtraction after 3 hours of incubation at room temperature. IC50 was calculated using Prism software with sigmoidal dose-response curve fitting. ABT-737 was used as reference compound. Such assays, carried out with a range of doses of test compounds, allowed the determination of an approximate IC50 value.

[5] = test system: BCL-2-dependent acute lymphoblastic leukemia (ALL) cell line RS4;11; test: In vitro anti-proliferation assay (ATPlite luminescence) in RS4;11; format: cell-based; conditions: RS4;11 cells, about 72 hours, medium with 5% FBS or 10% normal human serum
Method: Cell antiproliferation was assayed by PerkinElmer ATPlite™ Luminescence Assay System. Briefly, the various test cancer cell lines were plated at a density of about 1×10^4 cells per well in Costar 96-well plates, and were incubated with different concentrations of compounds for about 72 hours in medium supplemented with 5% FBS or 10% normal human serum (NHS). One lyophilized substrate solution vial was then reconstituted by adding 5 mL of substrate buffer solution, and was agitated gently until the solution was homogeneous. About 50 μL of mammalian cell lysis solution was added to 100 μL of cell suspension per well of a microplate, and the plate was shaken for about five minutes in an orbital shaker at 700 rpm. This procedure was used to lyse the cells and to stabilize the ATP. Next, 50 μL substrate solution was added to the wells and microplate was shaken for five minutes in an orbital shaker at 700 rpm. Finally, the luminescence was measured by a PerkinElmer TopCount® Microplate Scintillation Counter. Such assays, carried out with a range of doses of test compounds, allowed the determination of the cellular anti-antiproliferative IC50 of the compounds of the present invention.

Mcl-1 = Mcl-1 (Homo sapiens (Human), UniProt Q07820); conditions: cited from earlier work
RS4;11 cells = conditions: cited from earlier work
CLL = conditions: average, read-out: average EC50, apoptosis in CLL; cited from earlier work
RS4; 11 xenografts = conditions: single dose of 100 mg/kg; cited from earlier work

Chain of BCL-2 (P10415 whole entry): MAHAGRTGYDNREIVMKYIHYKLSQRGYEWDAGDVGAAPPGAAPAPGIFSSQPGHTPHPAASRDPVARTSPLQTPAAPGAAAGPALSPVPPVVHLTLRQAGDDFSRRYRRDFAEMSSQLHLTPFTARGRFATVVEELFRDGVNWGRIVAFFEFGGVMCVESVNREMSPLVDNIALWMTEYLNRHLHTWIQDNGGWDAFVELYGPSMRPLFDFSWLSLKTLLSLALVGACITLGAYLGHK
Chain of Mcl-1 (Q07820 whole entry): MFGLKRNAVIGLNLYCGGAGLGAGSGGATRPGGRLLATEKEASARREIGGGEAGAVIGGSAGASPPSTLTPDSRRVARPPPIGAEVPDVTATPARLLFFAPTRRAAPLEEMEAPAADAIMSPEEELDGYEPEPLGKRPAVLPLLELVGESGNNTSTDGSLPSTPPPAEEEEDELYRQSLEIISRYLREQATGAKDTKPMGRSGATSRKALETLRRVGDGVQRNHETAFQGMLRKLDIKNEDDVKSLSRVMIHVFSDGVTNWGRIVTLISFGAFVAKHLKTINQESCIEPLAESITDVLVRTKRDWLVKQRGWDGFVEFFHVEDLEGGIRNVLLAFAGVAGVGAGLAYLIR
Chain of Bcl-w (Q92843 whole entry): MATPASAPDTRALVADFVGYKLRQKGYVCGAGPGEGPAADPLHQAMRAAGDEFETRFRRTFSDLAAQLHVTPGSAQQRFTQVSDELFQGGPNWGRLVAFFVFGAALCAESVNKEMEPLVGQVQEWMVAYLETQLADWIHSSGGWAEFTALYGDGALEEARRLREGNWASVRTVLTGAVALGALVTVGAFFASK

Which results are given for `CC1(C)CCC(c2ccc(Cl)cc2)=C(CN2CCN(c3ccc(C(=O)NS(=O)(=O)c4ccc(N[C@H](CCN5CCOCC5)CSc5ccccc5)c(S(=O)(=O)C(F)(F)F)c4)cc3)CC2)C1` [ABT-263]?
Ki (Bcl-w): ≤ 1 nM; IC50 (SCLC H146 cell line): 110 nM; TGI (H345 xenograft): 80%; treated tumors indicating at least a 50% reduction in tumor volume (H345 xenograft): 20%; tumor response, small-cell lung cancer xenograft models [1]: complete tumor regressions; tumor response, acute lymphoblastic leukemia xenograft models [2]: complete tumor regressions; number of circulating platelets (circulating platelets): rapid, concentration-dependent decrease

Which results are given for `CN(C)CC[C@H](CSc1ccccc1)Nc1ccc(S(=O)(=O)NC(=O)c2ccc(N3CCN(Cc4ccccc4-c4ccc(Cl)cc4)CC3)cc2)cc1[N+](=O)[O-]` [ABT-737]?
oral bioavailability [3]: not orally bioavailable; aqueous solubility [4]: low aqueous solubility

Which results are given for `CC1(C)CCC(CN2CCN(c3ccc(C(=O)NS(=O)(=O)c4ccc(NCC5CCOCC5)c([N+](=O)[O-])c4)c(N4CCCCOc5nc6[nH]ccc6cc54)c3)CC2)=C(c2ccc(Cl)cc2)C1` [Example 69, 4-(4-[[2-(4-chlorophenyl)-4,4-dimethylcyclohex-1-en-1-yl]methyl]piperazin-1-yl)-N-(3-nitro-4-[[(oxan-4-yl)methyl]amino]benzenesulfonyl)-2-[15-oxa-2,4,10-triazatricyclo[7.6.0.0^[3,7]]pentadeca-1(9),2,5,7-tetraen-10-yl]benzamide]?
IC50 (BCL-2): 0.6 nM; IC50 [5]: 28.6 nM

With `CC1(C)CCC(CN2CCN(c3ccc(C(=O)NS(=O)(=O)c4ccc(NCC5CCOCC5)c([N+](=O)[O-])c4)c(Oc4cnc5[nH]ccc5c4)c3)CC2)=C(c2ccc(Cl)cc2)C1` [ABT-199] as the compound, how does the “activity to Mcl-1” value (Mcl-1) read?
The value was “no activity”.

And the EC50 (RS4;11 cells)?
Its EC50 is 8 nM.

And the EC50 (CLL)?
Its EC50 is 3 nM.

And the “maximal tumor growth inhibition” value (RS4; 11 xenografts)?
Its value is 95%.

And the tumor growth delay (RS4; 11 xenografts)?
The tumor growth delay was 152%.

Which IC50 (BCL-2) does the source give for `CC1(C)CC(c2ccc(Cl)cc2)=C(CN2CCN(c3ccc(C(=O)NS(=O)(=O)c4ccc(NC[C@H]5COCCO5)c([N+](=O)[O-])c4)c(N4CCCOc5nc6[nH]ccc6cc54)c3)CC2)CO1` [Example 72, 4-(4-[[4-(4-chlorophenyl)-6,6-dimethyl-2,5-dihydropyran-3-yl]methyl]piperazin-1-yl)-N-(4-[[(2S)-1,4-dioxan-2-ylmethyl]amino]-3-nitrobenzenesulfonyl)-2-[14-oxa-2,4,10-triazatricyclo[7.5.0.0^[3,7]]tetradeca-1(9),2,5,7-tetraen-10-yl]benzamide] here?
The IC50 was 0.01 nM.

And the IC50 [5]?
Its IC50 is 0.3 nM.
